Patent US10780090B2, “Heteroaryl compounds useful as inhibitors of SUMO activating enzyme” (Millennium Pharmaceuticals, Inc., priority 2014, dated 2020)

Molecular target: recombinant human SAE enzyme (Homo sapiens (Human), UniProt Q9UBT2)
Assay: SAE HTRF enzyme assay
Type: biochemical
Conditions: for inhibition at 0.111 µM: read-out: Percent Inhibition
Summary of the method: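 Enzyme reaction: 50 mM HEPES pH 7.5, 5 mM MgCl2, 250 μM GSH, 0.05% BSA, 0.5 μM ATP, 0.01 μM Ubc9-GST, 0.125 μM Sumo-Flag, 0.11 nM SAE; 105 min, 24° C. Stop/detect, 2 h, then HTRF. % inh or IC50.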

[1] = SAE inhibition at compound concentration 0.111 μM
[2] = SAE inhibition, class symbols, legend in nM

recombinant human SAE enzyme, sequence (Q9UBT2 whole entry): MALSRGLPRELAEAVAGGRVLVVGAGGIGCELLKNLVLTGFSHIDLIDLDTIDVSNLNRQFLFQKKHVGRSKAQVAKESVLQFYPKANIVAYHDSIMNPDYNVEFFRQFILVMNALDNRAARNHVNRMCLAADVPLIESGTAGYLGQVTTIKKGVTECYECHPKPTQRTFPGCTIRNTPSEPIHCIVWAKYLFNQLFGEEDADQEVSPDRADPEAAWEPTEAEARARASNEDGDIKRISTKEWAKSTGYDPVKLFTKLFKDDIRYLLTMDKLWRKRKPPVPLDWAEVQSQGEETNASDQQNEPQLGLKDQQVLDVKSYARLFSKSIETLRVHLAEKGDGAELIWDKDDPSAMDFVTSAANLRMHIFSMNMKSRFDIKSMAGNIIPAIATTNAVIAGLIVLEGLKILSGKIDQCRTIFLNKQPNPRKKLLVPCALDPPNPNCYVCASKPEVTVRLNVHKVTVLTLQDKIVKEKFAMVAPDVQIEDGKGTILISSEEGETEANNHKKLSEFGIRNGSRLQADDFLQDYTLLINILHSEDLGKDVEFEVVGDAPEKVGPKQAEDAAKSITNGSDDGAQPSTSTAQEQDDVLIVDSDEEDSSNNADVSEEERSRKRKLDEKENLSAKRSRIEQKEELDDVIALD
recombinant human SAE enzyme, sequence (Q9UBE0 whole entry partner): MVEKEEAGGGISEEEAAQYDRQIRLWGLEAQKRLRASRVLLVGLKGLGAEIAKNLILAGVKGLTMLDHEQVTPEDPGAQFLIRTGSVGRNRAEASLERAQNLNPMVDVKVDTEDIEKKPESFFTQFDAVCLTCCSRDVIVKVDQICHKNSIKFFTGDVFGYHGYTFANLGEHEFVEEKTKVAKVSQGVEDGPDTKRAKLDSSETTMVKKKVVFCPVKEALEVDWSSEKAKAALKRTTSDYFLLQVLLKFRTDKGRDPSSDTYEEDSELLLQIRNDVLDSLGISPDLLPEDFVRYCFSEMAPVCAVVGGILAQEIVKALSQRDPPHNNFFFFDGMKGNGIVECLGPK

Compound: NS(=O)(=O)OC[C@H]1C[C@@H](Nc2ncncc2C(=O)c2cc(Cc3cccc(Cl)c3)c([C@@H]3CCCO3)s2)C[C@@H]1O (mixture of isomers) [I-41, [(1R,2S,4R)-4-{[5-({4-(3-chlorobenzyl)-5-[(2S)-tetrahydrofuran-2-yl]-2-thienyl}carbonyl)pyrimidin-4-yl]amino}-2-hydroxycyclopentyl]methyl sulfamate and [(1R,2S,4R)-4-{[5-({4-(3-chlorobenzyl)-5-[(2R)-tetrahydrofuran-2-yl]-2-thienyl}carbonyl)pyrimidin-4-yl]amino}-2-hydroxycyclopentyl]methyl sulfamate]
- Percent Inhibition (Concentration 0.111 μM): 99
- IC50 (class symbols A/B/C): < 10 nM

Compound: Cc1cn2c(n1)[C@H](c1cc(C(=O)c3cncnc3N[C@@H]3C[C@H](COS(N)(=O)=O)[C@@H](O)C3)sc1C)OCC2 (mixture of isomers) [I-309, [(1R,2S,4R)-2-hydroxy-4-{[5-({5-methyl-4-[(8S)-2-methyl-5,6-dihydro-8H-imidazo[2,1-c][1,4]oxazin-8-yl]-2-thienyl}carbonyl)pyrimidin-4-yl]amino}cyclopentyl]methyl sulfamate and [(1R,2S,4R)-2-hydroxy-4-{[5-({5-methyl-4-[(8R)-2-methyl-5,6-dihydro-8H-imidazo[2,1-c][1,4]oxazin-8-yl]-2-thienyl}carbonyl)pyrimidin-4-yl]amino}cyclopentyl]methyl sulfamate]
- Percent Inhibition [1]: 98%
- IC50 [2]: < 10 nM

Compound: NS(=O)(=O)OC[C@H]1C[C@@H](Nc2ncncc2C(=O)c2ccc(CO)o2)C[C@@H]1O [I-206, [(1R,2S,4R)-2-hydroxy-4-({5-[5-(hydroxymethyl)-2-furoyl]pyrimidin-4-yl}amino)cyclopentyl]methyl sulfamate]
- inhibition at 0.111 µM (Concentration 0.111 μM): 49%
- IC50 (class symbols A/B/C): 100 to 1000 nM

Compound: NS(=O)(=O)OC[C@H]1C[C@@H](Nc2ncncc2C(=O)c2cc([C@H](O)c3cccc(Cl)c3F)c(Cl)s2)C[C@@H]1O (mixture of isomers) [I-40, [(1R,2S,4R)-4-{[5-({5-chloro-4-[(R)-(3-chloro-2-fluorophenyl)(hydroxy)methyl]-2-thienyl}carbonyl)pyrimidin-4-yl]amino}-2-hydroxycyclopentyl]methyl sulfamate and [(1R,2S,4R)-4-{[5-({5-chloro-4-[(S)-(3-chloro-2-fluorophenyl)(hydroxy)methyl]-2-thienyl}carbonyl)pyrimidin-4-yl]amino}-2-hydroxycyclopentyl]methyl sulfamate]
- Percent Inhibition (Concentration 0.111 μM): 96
- IC50 (class symbols A/B/C): < 10 nM

Compound: Cc1ccc2ccn(Cc3csc(C(=O)c4cncnc4N[C@@H]4C[C@H](COS(N)(=O)=O)[C@@H](O)C4)c3)c2c1 [I-132, [(1R,2S,4R)-2-hydroxy-4-{[5-({4-[(6-methyl-1H-indol-1-yl)methyl]-2-thienyl}carbonyl)pyrimidin-4-yl]amino}cyclopentyl]methyl sulfamate]
- inhibition at 0.111 µM (Concentration 0.111 μM): 96%
- IC50 (class symbols A/B/C): < 10 nM

Compound: Cc1sc(C(=O)c2cncnc2N[C@@H]2C[C@H](COS(N)(=O)=O)[C@@H](O)C2)cc1C1OCCc2oc(Cl)cc21 (single isomer, unassigned) [I-298a, [(1R,2S,4R)-4-{[5-({4-[(4R)-2-chloro-6,7-dihydro-4H-furo[3,2-c]pyran-4-yl]-5-methyl-2-thienyl}carbonyl)pyrimidin-4-yl]amino}-2-hydroxycyclopentyl]methyl sulfamate or [(1R,2S,4R)-4-{[5-({4-[(4S)-2-chloro-6,7-dihydro-4H-furo[3,2-c]pyran-4-yl]-5-methyl-2-thienyl}carbonyl)pyrimidin-4-yl]amino}-2-hydroxycyclopentyl]methyl sulfamate]
- Percent Inhibition [1]: 34%
- IC50 [2]: 100 to 1000 nM

Compound: Cc1sc(C(=O)c2cncnc2N[C@@H]2C[C@H](COS(N)(=O)=O)[C@@H](O)C2)cc1[S@+]([O-])c1cccc(Cl)c1 (single isomer, unassigned) [I-28a, [(1R,2S,4R)-4-{[5-({4-[(R)-(3-chlorophenyl)sulfinyl]-5-methyl-2-thienyl}carbonyl)pyrimidin-4-yl]amino}-2-hydroxycyclopentyl]methyl sulfamate or [(1R,2S,4R)-4-{[5-({4-[(S)-(3-chlorophenyl)sulfinyl]-5-methyl-2-thienyl}carbonyl)pyrimidin-4-yl]amino}-2-hydroxycyclopentyl]methyl sulfamate]
- Percent Inhibition (Concentration 0.111 μM): 66
- IC50 (class symbols A/B/C): 10 to 100 nM

Compound: NS(=O)(=O)OC[C@H]1C[C@@H](Nc2ncncc2C(=O)c2cc(COc3ccccc3I)cs2)C[C@@H]1O [I-161, [(1R,2S,4R)-2-Hydroxy-4-{[-({4-(2-iodophenoxy)methyl]-2-thienyl}carbonyl)pyrimidin-4-yl]amino}cyclopentyl]methyl sulfamate]
- Percent Inhibition (Concentration 0.111 μM): 91
- IC50 (class symbols A/B/C): < 10 nM

Compound: NS(=O)(=O)OCC1CC(Nc2ncncc2C(=O)c2cc(C(O)c3cccc(Cl)n3)cs2)CC1O (mixture of isomers) [I-29, [(1R,2S,4R)-4-({5-[{4-[(S)-(6-Chloropyridin-2-yl)(hydroxy)methyl]-2-thienyl}carbonyl)pyrimidin-4-yl]amino}-2-hydroxycyclopentyl]methyl sulfamate and [(1R,2S,4R)-4-{[5-({4-[(R)-(6-Chloropyridin-2-yl)(hydroxy)methyl]-2-thienyl}carbonyl)pyrimidin-4-yl]amino}-2-hydroxycyclopentyl]methyl sulfamate]
- Percent Inhibition (Concentration 0.111 μM): 100
- IC50 (class symbols A/B/C): < 10 nM

Compound: NS(=O)(=O)OC[C@H]1C[C@@H](Nc2ncncc2C(=O)c2cc(C3NCCc4ccc(Cl)cc43)cs2)C[C@@H]1O (single isomer, unassigned) [I-274a, [(1R,2S,4R)-4-{[5-({4-[(1R)-7-chloro-1,2,3,4-tetrahydroisoquinolin-1-yl]-2-thienyl}carbonyl)pyrimidin-4-yl]amino}-2-hydroxycyclopentyl]methyl sulfamate or [(1R,2S,4R)-4-{[5-({4-[(1S)-7-chloro-1,2,3,4-tetrahydroisoquinolin-1-yl]-2-thienyl}carbonyl)pyrimidin-4-yl]amino}-2-hydroxycyclopentyl]methyl sulfamate]
- Percent Inhibition (Concentration 0.111 μM): 98
- IC50 (class symbols A/B/C): < 10 nM

Compound: NS(=O)(=O)OC[C@H]1C[C@@H](Nc2ncncc2C(=O)c2cc([C@@H]3NCCc4ccccc43)cs2)C[C@@H]1O (single isomer, unassigned) [I-283b, [(1R,2S,4R)-2-hydroxy-4-{[5-({4-[(1R)-1,2,3,4-tetrahydroisoquinolin-1-yl]-2-thienyl}carbonyl)pyrimidin-4-yl]amino}cyclopentyl]methyl sulfamate or [(1R,2S,4R)-2-hydroxy-4-{[5-({4-[(1S)-1,2,3,4-tetrahydroisoquinolin-1-yl]-2-thienyl}carbonyl)pyrimidin-4-yl]amino}cyclopentyl]methyl sulfamate]
- Percent Inhibition [1]: 93%
- IC50 [2]: 10 to 100 nM

Compound: NS(=O)(=O)OC[C@H]1C[C@@H](Nc2ncncc2C(=O)c2cc([C@H](O)c3cccc(Cl)c3)cs2)C[C@@H]1O (single isomer, unassigned) [I-4a, [(1R,2S,4R)-4-{[5-({4-[(R)-(3-chlorophenyl)(hydroxy)methyl]-2-thienyl}carbonyl)pyrimidin-4-yl]amino}-2-hydroxycyclopentyl]methyl sulfamate or [(1R,2S,4R)-4-{[5-({4-[(S)-(3-chlorophenyl)(hydroxy)methyl]-2-thienyl}carbonyl)pyrimidin-4-yl]amino}-2-hydroxycyclopentyl]methyl sulfamate]
- Percent Inhibition (Concentration 0.111 μM): 99
- IC50 (class symbols A/B/C): < 10 nM
